Several values for one entry are separate records, joined by “and”; a condition that tells them apart may be missing. Equal values may be shown once. Inconclusive results are not listed.
Tested on: B6C3F1 mice, colon carcinoma 38 s.c., T/C
Assay: NCI In Vivo Anticancer Drug Screen. Data for tumor model Colon Carcinoma 38 (subcutaneous) in B6C3F1 mice
Details: higher = larger tumour
Protocol: The antitumor activity of compounds was measured in mice bearing transplantable tumors. Survival or tumor size were measured and the results are expressed as the measurement made in the treated group (T) divided by the measurement made in the vehicle treated control group (C). The tumor model used in this assay is Colon Carcinoma 38 (subcutaneous) in B6C3F1 mice

[1] = endpoint: median tumor weight (est.), dose: 50.0 mg/kg/injection, schedule: Q07DX002 (ip), vehicle: saline with Tween-80
[2] = endpoint: median tumor weight (est.), dose: 200.0 mg/kg/injection, schedule: Q07DX002 (ip), vehicle: saline with Tween-80

For `O=C(O)Cc1cccc2c(=O)cc(-c3ccccc3)oc12`, the T/C (endpoint: median tumor weight (est.), dose: 33.0 mg/kg/injection, schedule: Q07DX002 (ip), vehicle: suspension in saline) was 67 % of control, the T/C (endpoint: median tumor weight (est.), dose: 63.0 mg/kg/injection, schedule: Q07DX002 (ip), vehicle: clinical formulation) was 109 % of control and the T/C (endpoint: median tumor weight (est.), dose: 63.0 mg/kg/injection, schedule: Q07DX002 (ip), vehicle: sodium bicarbonate) was 100 % of control. For the same compound, the T/C (endpoint: median tumor weight (est.), dose: 63.0 mg/kg/injection, schedule: Q07DX002 (iv), vehicle: clinical formulation) was 114 % of control, the T/C (endpoint: median tumor weight (est.), dose: 63.0 mg/kg/injection, schedule: Q07DX002 (iv), vehicle: sodium bicarbonate) was 90 % of control and the T/C (endpoint: median tumor weight (est.), dose: 66.0 mg/kg/injection, schedule: Q07DX002 (ip), vehicle: suspension in saline) was 89 % of control. The T/C (endpoint: median tumor weight (est.), dose: 84.0 mg/kg/injection, schedule: Q07DX002 (ip), vehicle: clinical formulation) was 91 % of control, the T/C (endpoint: median tumor weight (est.), dose: 84.0 mg/kg/injection, schedule: Q07DX002 (ip), vehicle: sodium bicarbonate) was 155 % of control and the T/C (endpoint: median tumor weight (est.), dose: 84.0 mg/kg/injection, schedule: Q07DX002 (iv), vehicle: clinical formulation) was 67 % of control. The T/C (endpoint: median tumor weight (est.), dose: 84.0 mg/kg/injection, schedule: Q07DX002 (iv), vehicle: sodium bicarbonate) was 82 % of control, the T/C (endpoint: median tumor weight (est.), dose: 100.0 mg/kg/injection, schedule: Q07DX002 (ip), vehicle: suspension in saline) was 90 % of control and the T/C (endpoint: median tumor weight (est.), dose: 112.0 mg/kg/injection, schedule: Q07DX002 (ip), vehicle: clinical formulation) was 95 % of control. The T/C (endpoint: median tumor weight (est.), dose: 112.0 mg/kg/injection, schedule: Q07DX002 (iv), vehicle: clinical formulation) was 74 % of control, the T/C (endpoint: median tumor weight (est.), dose: 112.0 mg/kg/injection, schedule: Q07DX002 (iv), vehicle: sodium bicarbonate) was 84 % of control and 102 % of control and the T/C (endpoint: median tumor weight (est.), dose: 128.0 mg/kg/injection, schedule: Q07DX002 (ip), vehicle: water) was 79 % of control. The T/C (endpoint: median tumor weight (est.), dose: 150.0 mg/kg/injection, schedule: Q07DX002 (ip), vehicle: clinical formulation) was 14 % of control, the T/C (endpoint: median tumor weight (est.), dose: 150.0 mg/kg/injection, schedule: Q07DX002 (ip), vehicle: sodium bicarbonate) was 101 % of control and the T/C (endpoint: median tumor weight (est.), dose: 150.0 mg/kg/injection, schedule: Q07DX002 (ip), vehicle: suspension in saline) was 10 % of control. For the same compound, the T/C (endpoint: median tumor weight (est.), dose: 150.0 mg/kg/injection, schedule: Q07DX002 (iv), vehicle: clinical formulation) was 47 % of control, the T/C (endpoint: median tumor weight (est.), dose: 150.0 mg/kg/injection, schedule: Q07DX002 (iv), vehicle: sodium bicarbonate) was 57 % of control and the T/C (endpoint: median tumor weight (est.), dose: 160.0 mg/kg/injection, schedule: Q07DX002 (ip), vehicle: water) was 81 % of control. The T/C (endpoint: median tumor weight (est.), dose: 200.0 mg/kg/injection, schedule: Q07DX002 (ip), vehicle: sodium bicarbonate) was 79 % of control and 87 % of control, the T/C (endpoint: median tumor weight (est.), dose: 200.0 mg/kg/injection, schedule: Q07DX002 (ip), vehicle: water) was 25 % of control and the T/C (endpoint: median tumor weight (est.), dose: 250.0 mg/kg/injection, schedule: Q07DX002 (ip), vehicle: water) was 13 % of control. For the same compound, the T/C (endpoint: median tumor weight (est.), dose: 267.0 mg/kg/injection, schedule: Q07DX002 (iv), vehicle: sodium bicarbonate) was 77 % of control, the T/C (endpoint: median tumor weight (est.), dose: 356.0 mg/kg/injection, schedule: Q07DX002 (iv), vehicle: sodium bicarbonate) was 77 % of control and the T/C (endpoint: optimum tumor weight change, dose: 128.0 mg/kg/injection, schedule: Q07DX002 (ip), vehicle: water) was 78 % of control. The T/C (endpoint: optimum tumor weight change, dose: 160.0 mg/kg/injection, schedule: Q07DX002 (ip), vehicle: water) was 50 % of control, the T/C (endpoint: optimum tumor weight change, dose: 200.0 mg/kg/injection, schedule: Q07DX002 (ip), vehicle: water) was 72 % of control and the T/C (endpoint: optimum tumor weight change, dose: 250.0 mg/kg/injection, schedule: Q07DX002 (ip), vehicle: water) was 20 % of control.
For `O=C(c1cccnc1)c1cc(-c2ccccn2)c(=O)n2ccccc12`, the T/C (endpoint: median tumor weight (est.), dose: 200.0 mg/kg/injection, schedule: Q07DX002 (ip), vehicle: saline) was 75 % of control, the T/C (endpoint: median tumor weight (est.), dose: 400.0 mg/kg/injection, schedule: Q07DX002 (ip), vehicle: saline) was 83 % of control and the T/C (endpoint: median tumor weight (est.), dose: 800.0 mg/kg/injection, schedule: Q07DX002 (ip), vehicle: saline) was 88 % of control.
In the case of `Nc1ccn(C2OC(CO)C(O)C2O)c(=O)n1` (stereo unspecified), the T/C (endpoint: median tumor weight (est.), dose: 300.0 mg/kg/injection, schedule: Q07DX002 (ip), vehicle: saline) is reported as 70 % of control, the T/C (endpoint: median tumor weight (est.), dose: 600.0 mg/kg/injection, schedule: Q07DX002 (ip), vehicle: saline) is reported as 90 % of control and the T/C (endpoint: median tumor weight (est.), dose: 1200.0 mg/kg/injection, schedule: Q07DX002 (ip), vehicle: saline) is reported as 56 % of control. For the same compound, the T/C (endpoint: median tumor weight (est.), dose: 2400.0 mg/kg/injection, schedule: Q07DX002 (ip), vehicle: saline) was 64 % of control.
For `Cc1c(N)nc([C@H](CC(N)=O)NC[C@H](N)C(N)=O)nc1C(=O)N[C@H](C(=O)N[C@H](C)[C@@H](O)CC(=O)N[C@H](C(=O)NC(O[C@@H]1O[C@@H](C)[C@@H](N)[C@@H](O)[C@H]1O)C(O)c1nc(-c2nc(C(=O)NCCCCN)cs2)cs1)[C@@H](C)O)[C@@H](O[C@@H]1O[C@@H](CO)[C@@H](O)[C@H](O)[C@@H]1O[C@H]1O[C@H](CO)[C@@H](O)[C@H](OC(N)=O)[C@@H]1O)c1c[nH]cn1` (stereo partly specified), the T/C (endpoint: median tumor weight (est.), dose: 4.0 mg/kg/injection, schedule: Q07DX002 (ip), vehicle: saline) was 54 % of control, the T/C (endpoint: median tumor weight (est.), dose: 8.0 mg/kg/injection, schedule: Q07DX002 (ip), vehicle: saline) was 35 % of control and the T/C (endpoint: median tumor weight (est.), dose: 16.0 mg/kg/injection, schedule: Q07DX002 (ip), vehicle: saline) was 13 % of control. The T/C (endpoint: median tumor weight (est.), dose: 32.0 mg/kg/injection, schedule: Q07DX002 (ip), vehicle: saline) was 25 % of control and the T/C (endpoint: median tumor weight (est.), dose: 64.0 mg/kg/injection, schedule: Q07DX002 (ip), vehicle: saline) was 9 % of control.
With `COc1ccc(C(=O)C(CN(C)C)CN(C)C)cc1` the T/C (endpoint: median tumor weight (est.), dose: 3.12 mg/kg/injection, schedule: Q07DX002 (ip), vehicle: saline) was 109 % of control, the T/C (endpoint: median tumor weight (est.), dose: 6.25 mg/kg/injection, schedule: Q07DX002 (ip), vehicle: saline) was 113 % of control and the T/C (endpoint: median tumor weight (est.), dose: 12.5 mg/kg/injection, schedule: Q07DX002 (ip), vehicle: saline) was 115 % of control. The T/C (endpoint: median tumor weight (est.), dose: 25.0 mg/kg/injection, schedule: Q07DX002 (ip), vehicle: saline) was 102 % of control.
In the case of `ClCc1ccc2ccccc2n1`, the T/C [1] is reported as 93 % of control, the T/C (endpoint: median tumor weight (est.), dose: 100.0 mg/kg/injection, schedule: Q07DX002 (ip), vehicle: saline with Tween-80) is reported as 86 % of control and the T/C [2] is reported as 89 % of control.
`Nc1n[nH]c2ccccc12` was tested, and the T/C (endpoint: median tumor weight (est.), dose: 50.0 mg/kg/injection, schedule: Q07DX002 (ip), vehicle: acid diluted with saline) was 105 % of control, the T/C (endpoint: median tumor weight (est.), dose: 100.0 mg/kg/injection, schedule: Q07DX002 (ip), vehicle: acid diluted with saline) was 112 % of control and the T/C (endpoint: median tumor weight (est.), dose: 200.0 mg/kg/injection, schedule: Q07DX002 (ip), vehicle: acid diluted with saline) was 84 % of control. The T/C (endpoint: median tumor weight (est.), dose: 400.0 mg/kg/injection, schedule: Q07DX002 (ip), vehicle: acid diluted with saline) was 59 % of control and the T/C (endpoint: median tumor weight (est.), dose: 800.0 mg/kg/injection, schedule: Q07DX002 (ip), vehicle: acid diluted with saline) was 74 % of control.
With `COC1C(CO)OC(n2cnc3c(=S)nc(N)[nH]c32)C1O` (stereo unspecified) the T/C (endpoint: median tumor weight (est.), dose: 100.0 mg/kg/injection, schedule: Q07DX002 (ip), vehicle: Klucel (hydroxypropylcellulose) (HPC)) was 110 % of control, the T/C (endpoint: median tumor weight (est.), dose: 200.0 mg/kg/injection, schedule: Q07DX002 (ip), vehicle: Klucel (hydroxypropylcellulose) (HPC)) was 46 % of control and the T/C (endpoint: median tumor weight (est.), dose: 400.0 mg/kg/injection, schedule: Q07DX002 (ip), vehicle: Klucel (hydroxypropylcellulose) (HPC)) was 51 % of control. For the same compound, the T/C (endpoint: median tumor weight (est.), dose: 800.0 mg/kg/injection, schedule: Q07DX002 (ip), vehicle: Klucel (hydroxypropylcellulose) (HPC)) was 13 % of control.
With `ClCCCN1CCN(CCCl)CC1` the T/C (endpoint: median tumor weight (est.), dose: 5.0 mg/kg/injection, schedule: Q07DX002 (ip), vehicle: saline) was 101 % of control, the T/C (endpoint: median tumor weight (est.), dose: 10.0 mg/kg/injection, schedule: Q07DX002 (ip), vehicle: saline) was 83 % of control and the T/C (endpoint: median tumor weight (est.), dose: 20.0 mg/kg/injection, schedule: Q07DX002 (ip), vehicle: saline) was 44 % of control.
For `Nc1ccc2ccc(NS(=O)(=O)N3CCCCC3)cc2c1`, the T/C [1] was 108 % of control, the T/C [2] was 39 % of control and the T/C (endpoint: median tumor weight (est.), dose: 400.0 mg/kg/injection, schedule: Q07DX002 (ip), vehicle: saline with Tween-80) was 15 % of control.
`O=c1[nH]c(=O)n([C@H]2CCCO2)cc1F` was tested, and the T/C (endpoint: median tumor weight (est.), dose: 80.0 mg/kg/injection, schedule: Q07DX003 (ip), vehicle: Klucel (hydroxypropylcellulose) (HPC)) was 51 % of control, the T/C (endpoint: median tumor weight (est.), dose: 160.0 mg/kg/injection, schedule: Q07DX003 (ip), vehicle: Klucel (hydroxypropylcellulose) (HPC)) was 85 % of control and the T/C (endpoint: median tumor weight (est.), dose: 320.0 mg/kg/injection, schedule: Q07DX003 (ip), vehicle: Klucel (hydroxypropylcellulose) (HPC)) was 80 % of control. For the same compound, the T/C (endpoint: median tumor weight (est.), dose: 640.0 mg/kg/injection, schedule: Q07DX003 (ip), vehicle: Klucel (hydroxypropylcellulose) (HPC)) was 25 % of control.
For `Cn1c(=O)[nH]c2nncnc2c1=O`, the T/C (endpoint: median tumor weight (est.), dose: 12.5 mg/kg/injection, schedule: Q07DX002 (ip), vehicle: water) was 104 % of control and 112 % of control, the T/C (endpoint: median tumor weight (est.), dose: 50.0 mg/kg/injection, schedule: Q07DX002 (ip), vehicle: water) was 117 % of control and 119 % of control and the T/C (endpoint: median tumor weight (est.), dose: 100.0 mg/kg/injection, schedule: Q07DX002 (ip), vehicle: water) was 120 % of control.

Source: PubChem BioAssay AID214 (DTP/NCI, 2004)
